Reference: EP3349734B1, “USE OF SOLUBLE AND INSOLUBLE FRACTIONS OF A CYCLODEXTRIN POLYMER AND OF MIXTURES THEREOF AS AN EXCIPIENT IN A TABLET” (Université de Lille, priority 2015, dated 2017)

Tests used:
Format in all cases: physicochemical
[1] = Hygroscopicity: water vapour sorption/desorption isotherm (TGA Q5000 SA, 25°C, up to 98% RH); conditions: up to 98% relative humidity
Protocol: Les mesures d'absorption et de désorption d'eau des polymères ont été réalisées à l'aide d'un analyseur thermogravimétrique SA Q5000 de TA Instruments contenant une microbalance dans lequel des creusets contenant l'échantillon et la référence ont été enfermés dans une chambre à humidité et température contrôlées. La température dans le Q5000 SA a été contrôlée par des éléments Peltier. Un gaz sec de N2 (200 mL/min) a été divisé en deux parties, dont une partie a été humidifiée par passage dans une chambre saturée d'eau. L'humidité relative souhaitée (RH) pour les mesures peut ainsi être obtenue par mélange des proportions appropriées (régulées par les contrôleurs de débit massique) de flux sec et humide.
La mesure de l'isotherme standard est composée d'un certain nombre d'étapes. Premièrement, l'échantillon a été séché à 60°C et 0% d'humidité relative pendant un temps déterminé jusqu'à ce que la variation de poids soit stabilisée à moins de 0,05%. Dans un second temps, la température a été abaissée à 25°C. L'humidité a ensuite été augmentée progressivement (par pas de 2% d'humidité relative) à un maximum de 98% d'humidité relative. La variation de poids de l'échantillon a été stabilisée après chaque étape jusqu'à ce qu'elle soit inférieure à 0,05%. L'isotherme de désorption de l'eau a également été mesurée. […]

[2] = Phase-solubility diagram of ibuprofène with cyclodextrins or soluble polymer fractions; conditions: calculated from slope and So of the solubility diagram
Protocol: (§1) Les diagrammes de solubilité de plusieurs principes actifs ont été effectués en présence de cyclodextrines et de fractions solubles de polymères de cyclodextrine mentionnés à l'exemple 1.
(§2) Des solutions de concentration croissante de cyclodextrines et fractions solubles de polymères de cyclodextrine ont été préparées dans de l'eau ultrapure [0-70 g/L]. 10 mL de chacune des solutions ont été mis en présence d'un excès du principe actif (20 mg) sous agitation pendant 24 heures à température ambiante. Les solutions ont ensuite été filtrées avec une membrane en cellulose et en Nylon (0,45 µm; VWR International, USA) respectivement pour l'Ibuprofène et le Piroxicam. L'ibuprofène a été dosé par HPLC (Shimadzu LC-2010 HT Liquid Chromatography), la phase mobile de l'ibuprofène est un mélange acétonitrile/eau (60:40) avec un pH de 2,25, une colonne C18 a été utilisée. Le piroxicam a été dosé par spectrophotométrie UV-Vis à 356 nm (UV 1800 Shimadzu).
(§3) La constante de stabilité (K1:1) est utilisée pour comparer l'affinité de principes actifs pour différentes cyclodextrines ou dérivés. La solubilité totale de médicament (St) en solution aqueuse de cyclodextrine sera : [formula]
(§4) So = solubilité intrinsèque du médicament; [CD]1 = concentration totale en cyclodextrine dans le milieu aqueux
(§5) Une parcelle de St rapport [CD] t, selon l'équation (1), donnera une ligne droite avec une pente (K 1:1 So / (1 + K 1:1 So)) et une interception (Sint) égale à So. K 1:1 est calculée à partir de la pente et So : [formula]
Afin de pouvoir faire une comparaison directe entre cyclodextrine monomère et cyclodextrine polymérisée, les diagrammes de solubilité sont présentés en fonction de la concentration rapportée en gramme de monomère de cyclodextrine par litre. Tableau 3 : Solubilité de l'ibuprofène et constantes de complexation en présence des cyclodextrines ou de fractions solubles de polymères de cyclodextrine à 10 et 50 g/L en cyclodextrine. L'utilisation de cyclodextrines sous forme de monomères ne tombe pas sous l'étendue de la protection revendiquée.

[3] = Phase-solubility diagram of piroxicam with cyclodextrins or soluble polymer fractions; conditions: calculated from slope and So of the solubility diagram
Protocol: as §1, §2, §3, §4, §5

[4] = Tapped density, Carr compressibility index and flow of the powder; conditions: for TAP (Ic^∗): Carr index after 500 taps
Protocol: Densité après tassement et indice de compressibilité de la composition compressible.
L'appareil utilisé est un appareil de tassement (Engelsmann powder tester, PTTD200, Pharma Test Instruments, India) composé d'une éprouvette graduée de 100 mL sur un socle vibrant. Les manipulations ont été réalisées suivant les conditions décrites dans la pharmacopée européenne (1997). Pour chaque poudre, le volume initial avant tassement est mesuré (V0) permettant de calculer la densité p0. Le volume final (Vf) de la poudre est ensuite mesuré après 500 tassements. La densité finale de la poudre après tassement peut ainsi être calculée (pf). On en déduit également l'indice de compressibilité ou Indice de Carr (Ic) donné par la formule suivante : [formula]
Les poudres ayant un indice de Carr inférieur à 20% présentent un bon écoulement.

[5] = Tablet breaking strength (hardness), 5 mm / 100 mg tablets; conditions: no active ingredient, no other additive
From the text: La machine à comprimer alternative utilisée était une Korsch (Allemagne) équipé de poinçon plat cylindrique de diamètre 5 mm. Les étapes de compression étaient les suivantes: (1) le remplissage de la matrice par écoulement du mélange, (2) arasage, (3) compression et (4) éjection du comprimé. L'épaisseur moyenne des comprimés est de 3,2 mm.
Cet essai est destiné à déterminer, dans des conditions définies, la résistance à la rupture des comprimés, mesurée par la force nécessaire pour les rompre par écrasement entre deux mâchoires.
L'appareil utilisé (PTB 311E, Pharma test Instruments, Inde) est constitué de deux mâchoires se faisant face, dont l'une se déplace vers l'autre qui est fixe. Les surfaces planes des mâchoires sont perpendiculaires à la direction de déplacement.
Le mode opératoire consistait à mettre en place le comprimé à plat entre les mâchoires, puis, une mâchoire se déplaçait à vitesse constante pour appliquer une force jusqu'à la rupture du comprimé. Cette force maximale est notée et considérée comme la dureté du comprimé. La façon dont un comprimé se fracture quand une force croissante est appliquée varie considérablement selon les diverses caractéristiques des produits.

[6] = Tablet disintegration time in water; conditions: 100 mg tablets
Protocol: L'appareil utilisé était un appareil de désintégration manuelle PTZ-S, Pharma Test Instruments (Inde), composé d'un panier porte-tubes, un vase cylindrique bas de 1000 mL destiné à contenir le fluide d'immersion, un agencement thermostatique pour chauffer le fluide entre 35°C et 39°C, et d'un dispositif servant à imprimer au porte-tubes, dans le liquide d'immersion, un mouvement vertical alternatif. Le panier est composé de six tubes transparents verticaux, ouverts à leur extrémité supérieure et fermés à l'extrémité inférieure par une grille, un comprimé était placé dans chacun des six tubes du panier. Le fluide d'immersion était l'eau.
Le temps de désintégration a été déterminé comme le temps nécessaire pour que les comprimés passent à travers les mailles de la grille.

valeur maximale de prise d'eau [1]: 0,18 g/g
Constante de complexation K1:1 [2]: 11 M⁻¹
Constante de complexation K1:1 [3]: 173 M⁻¹
TAP (Ic^∗) [4]: > 20%
TAP (Ic^∗) ([4]; listed as CD (monomère)): 23,1%
Ecoulement ([4]; powder of βCD polymer fractions): Non Libre
Résistance à la rupture [5]: 45-50 N
Temps de désagrégation [6]: > 30 min
Compound: OC[C@H]1O[C@@H]2O[C@H]3[C@H](O)[C@@H](O)[C@@H](O[C@H]4[C@H](O)[C@@H](O)[C@@H](O[C@H]5[C@H](O)[C@@H](O)[C@@H](O[C@H]6[C@H](O)[C@@H](O)[C@@H](O[C@H]7[C@H](O)[C@@H](O)[C@@H](O[C@H]8[C@H](O)[C@@H](O)[C@@H](O[C@H]1[C@H](O)[C@H]2O)O[C@@H]8CO)O[C@@H]7CO)O[C@@H]6CO)O[C@@H]5CO)O[C@@H]4CO)O[C@@H]3CO [βCD, β-cyclodextrine]
